# Measured values published in US20250163009A1, “BENZOTHIA(DIA)ZEPINE COMPOUNDS FOR TREATMENT OF HBV AND HDV” (Assembly Biosciences, Inc., priority 2022, published 2025).
# System: HBV
# Experiment: HepG2-NTCP infection protocol, HBeAg quantification by ECL-ELISA
# Format: cell-based
# Details: HepG2-NTCP cells infected with HBV at MOI 50; compound 24 hours, then 72 hours; HBeAg in supernatant
# Protocol: HepG2 cells expressing the sodium taurocholate cotransporting polypeptide (HepG2-NTCP) were maintained in culture using HepG2-NTCP growth medium (DMEM (HyClone, Cat #SH30243.02) supplemented with 10% FBS, 150 μg/mL G418 (Alfa Aesar, Cat #J62671), 50 U/mL penicillin-streptomycin (Invitrogen, Cat #15140-122), and 0.5 μg/mL blasticidin (Sigma, Cat #15205)). Prior to infection, the cells were washed twice with 1×DPBS (Invitrogen, Cat #14190-136) and treated with 3 mL of 0.05% trypsin (Invitrogen, Cat #25200-056) to dissociate the cells. Following dissociation, 10 mL of HepG2-NTCP growth medium was added to the cells to neutralize the trypsin and the cells were then centrifuged at 1,300 rpm for 5 minutes. Following centrifugation, the cells were resuspended in 10 mL of HepG2-NTCP growth medium, counted, and then centrifuged at 1,300 rpm for 5 minutes. The cell pellet was resuspended in DMEM supplemented with 5% FBS, 50 U/mL penicillin-streptomycin, 4% PEG-8000 (Hamilton Research, Cat #HR2-515), and 1% DMSO (Sigma, Cat #D4540) to a density of 5.6×10^5 cells/mL and infected with HBV at an MOI of 50. Immediately after infection, 90 μL of the cell/HBV mixture was added to a 96-well plate containing 10 μL of compound and incubated at 37° C. for 24 hours (2% final DMSO concentration). After the incubation, the infection media was removed and replaced with DMEM supplemented with 5% FBS, 50 U/mL penicillin-streptomycin, and 1% DMSO and incubated for an additional 72 hours. At the end of the incubation, the plates were spun at 1,800 rpm for 8 minutes and the supernatant was removed for HBeAg quantification using electrochemiluminescence enzyme-linked immunosorbent assays (ECL-ELISA).
# To conduct the HBeAg ECL-ELISA, Lumitrack high-binding 96-well plates (Greiner, Cat #655074) were treated with 625 ng/mL HBeAg mAb (Biocheck, Cat #70426) in 1×DPBS for 2 hours at 25° C. with shaking. The HBeAg mAb solution was then removed and the plates treated with 1×DPBS containing 0.5% bovine serum albumin (BSA) (Sigma, Cat #A7030-100 g) for 2 hours at 25° C. with shaking. The HBeAg-coated plates were then washed 4 times with 1×DPBS containing 0.05% Tween 20 (DPBS-T) (Thermo Fisher Scientific, Cat #J61544-K2). Following the wash, 90 μL of HRP-conjugated antibody (Fitzgerald, Cat #61-H10K), diluted 1:8,000 in 1×DPBS-T containing 0.5% BSA, was added to the HBeAg-coated plates along with 10 μL of sample. The plates were then incubated for 2 hours at 25° C. with shaking. Following the incubation, the sample was then removed and 200 μL of 1×PBS-T was added and the plates were incubated for 10 minutes at 25° C. with shaking. The plates were then washed 6 times with 1×PBS-T and blotted dry. 80 μL of ECL substrate (Millipore, Cat #WBKLS0500) was then added to the plate and the luminescence was measured using a Tecan M1000 Pro plate reader.
row,EC50 [nM],Compound
1,100 to 1000,"CCCCC1CN(C2CCC(F)(F)CC2)c2cc(SC)c(O/C=C(\F)C(=O)O)cc2S(=O)(=O)N1C (single isomer, unassigned) [Example 2b]"
2,< 100,"CCCCC1CN(C2CCC(F)(F)CC2)c2cc(SC)c(O/C=C(\F)C(=O)O)cc2S(=O)(=O)N1C (single isomer, unassigned) [Example 2a]"

# Same assay, conditions: Hepatitis B virus, HepG2-NTCP cells infected with HBV at MOI 50; compound 24 hours, then 72 hours; HBeAg in supernatant
row,Compound,EC50 [nM]
1,CCCCC1CN(C2CCC(O)CC2)c2cc(SC)c(O/C=C(\F)C(=O)O)cc2S(=O)(=O)N1C (stereo not drawn) [Example 31],100 to 1000
2,CCCCC1CN(C2CCOCC2)c2cc(SC)c(O/C=C(\F)C(=O)OCC)cc2S(=O)(=O)N1C (stereo not drawn) [Example 19],100 to 1000
3,CCCC[C@H]1CN(C2CCN(C)C2)c2cc(SC)c(O/C=C(\F)C(=O)O)cc2S(=O)(=O)N1C (stereo in doubt) [Example 55],1000 to 5000
4,CCCCC1CN(Cc2ccc(F)cc2)c2cc(SC)c(O/C=C(\F)C(=O)O)cc2S(=O)(=O)N1C (stereo not drawn) [Example 10],< 100
5,CCCCC1CN(C2CCNCC2)c2cc(SC)c(O/C=C(\F)C(=O)O)cc2S(=O)(=O)N1C (stereo not drawn) [Example 46],1000 to 5000
6,CCCCC1CN(C2CCN(C(C)=O)CC2)c2cc(SC)c(O/C=C(\F)C(=O)O)cc2S(=O)(=O)N1C (stereo not drawn) [Example 48],1000 to 5000
7,"CCCCC1CN(C2CCC(F)(F)CC2)c2cc(SC)c(O/C=C(\F)C(=O)O)cc2S(=O)(=O)N1C (stereo not drawn) [Example 2, (Z)-3-((3-butyl-5-(4,4-difluorocyclohexyl)-2-methyl-7-(methylthio)-1,1-dioxido-2,3,4,5-tetrahydrobenzo[f][1,2,5]thiadiazepin-8-yl)oxy)-2-fluoroacrylic acid]",< 100
8,CCCCC1CN(Cc2cc(F)ccc2F)c2cc(SC)c(O/C=C(\F)C(=O)O)cc2S(=O)(=O)N1C (stereo not drawn) [Example 34],< 100
9,CCCCC1CN(CC2CCC(F)(F)CC2)c2cc(SC)c(O/C=C(\F)C(=O)OCC)cc2S(=O)(=O)N1C (stereo not drawn) [Example 35],100 to 1000
10,CCCCC1CN(CC2CCC(F)(F)CC2)c2cc(SC)c(O/C=C(\F)C(=O)O)cc2S(=O)(=O)N1C (stereo not drawn) [Example 36],< 100
11,CCCCC1CN(C2CCCCC2)c2cc(SC)c(O/C=C(\F)C(=O)O)cc2S(=O)(=O)N1C (stereo not drawn) [Example 16],< 100
12,CCCCC1CN(C2CCCC2)c2cc(SC)c(O/C=C/C(=O)O)cc2S(=O)(=O)N1C (stereo not drawn) [Example 14],100 to 1000
13,CCCCC1CN(Cc2ccccc2)c2cc(SC)c(O/C=C(\F)C(=O)O)cc2S(=O)(=O)N1C (stereo not drawn) [Example 28],< 100
14,CCCCC1CN(C2CCCOC2)c2cc(SC)c(O/C=C(\F)C(=O)OCC)cc2S(=O)(=O)N1C (stereo not drawn) [Example 21],100 to 1000
15,C#Cc1ccc(N2CC(CCCC)N(C)S(=O)(=O)c3cc(O/C=C/C(=O)O)c(SC)cc32)cc1 (stereo not drawn) [Example 9],< 100
16,CCCCC1CN(C2CCC(N)CC2)c2cc(SC)c(O/C=C(\F)C(=O)O)cc2S(=O)(=O)N1C (stereo not drawn) [Example 51],1000 to 5000
17,CCCCC1CN(C(=O)c2ccccc2)c2cc(SC)c(O/C=C(\F)C(=O)O)cc2S(=O)(=O)N1C (stereo not drawn) [Example 41],1000 to 5000
18,CCCCC1CN(C2CCOC2)c2cc(SC)c(O/C=C(\F)C(=O)O)cc2S(=O)(=O)N1C (stereo not drawn) [Example 50],100 to 1000
19,CCCCC1CN(Cc2ccc(F)c(F)c2)c2cc(SC)c(O/C=C(\F)C(=O)O)cc2S(=O)(=O)N1C (stereo not drawn) [Example 43],< 100
20,CCCCC1CN(C2CCC(OC)CC2)c2cc(SC)c(O/C=C(\F)C(=O)OCC)cc2S(=O)(=O)N1C (stereo not drawn) [Example 18],< 100
21,CCCCC1CN(C2CCN(C)CC2)c2cc(SC)c(O/C=C(\F)C(=O)O)cc2S(=O)(=O)N1C (stereo not drawn) [Example 47],1000 to 5000
22,CCCCC1CN(Cc2cccc(SC)c2)c2cc(SC)c(O/C=C(\F)C(=O)OCC)cc2S(=O)(=O)N1C (stereo not drawn) [Example 38],100 to 1000
23,CC#CCN1CC(CCCC)N(C)S(=O)(=O)c2cc(O/C=C(\F)C(=O)O)c(SC)cc21 (stereo not drawn) [Example 27],< 100
24,CCCCC1CN(C2CCOCC2)c2cc(SC)c(O/C=C(\F)C(=O)O)cc2S(=O)(=O)N1C (stereo not drawn) [Example 26],100 to 1000

# Now from value to compound:
row,EC50 [nM],Compound
1,< 100,CCCCC1CN(C2CCC(F)CC2)c2cc(SC)c(O/C=C(\F)C(=O)O)cc2S(=O)(=O)N1C (stereo not drawn) [Example 30]
2,100 to 1000,CCCCC1CN(c2ccccn2)c2cc(SC)c(O/C=C/C(=O)O)cc2S(=O)(=O)N1C (stereo not drawn) [Example 5]
3,100 to 1000,CCCCC1CN(Cc2ccc(F)c(F)c2)c2cc(SC)c(O/C=C(\F)C(=O)OCC)cc2S(=O)(=O)N1C (stereo not drawn) [Example 42]
4,< 100,CCCCC1CN(Cc2cc(F)ccc2F)c2cc(SC)c(O/C=C(\F)C(=O)OCC)cc2S(=O)(=O)N1C (stereo not drawn) [Example 33]
5,< 100,CCCCC1CN(Cc2cccc(F)c2)c2cc(SC)c(O/C=C(\F)C(=O)O)cc2S(=O)(=O)N1C (stereo not drawn) [Example 40]
6,100 to 1000,CCCCC1CN(c2ccn(C)n2)c2cc(SC)c(O/C=C(\F)C(=O)O)cc2S(=O)(=O)N1C (stereo not drawn) [Example 53]
7,1000 to 5000,CCCCC1CN(C2CCOC2)c2cc(SC)c(O/C=C/C(=O)O)cc2S(=O)(=O)N1C (stereo not drawn) [Example 22]
8,100 to 1000,CCCCC1CN(Cc2ccccc2)c2cc(SC)c(O/C=C/C(=O)O)cc2S(=O)(=O)N1C (stereo not drawn) [Example 15]
9,100 to 1000,CCCCC1CN(C(C)c2ccccc2)c2cc(SC)c(O/C=C(\F)C(=O)OCC)cc2S(=O)(=O)N1C (stereo not drawn) [Example 44]
10,100 to 1000,CCCCC1CN(c2ncccn2)c2cc(SC)c(O/C=C(\F)C(=O)O)cc2S(=O)(=O)N1C (stereo not drawn) [Example 24]
11,< 100,CCCCC1CN(c2ccc(N3CCCC3)cc2)c2cc(SC)c(O/C=C(\F)C(=O)O)cc2S(=O)(=O)N1C (stereo not drawn) [Example 11]
12,100 to 1000,CCCCC1CN(Cc2ccc(SC)cc2)c2cc(SC)c(O/C=C(\F)C(=O)OCC)cc2S(=O)(=O)N1C (stereo not drawn) [Example 13]
13,1000 to 5000,CCCCC1CN(C(=O)c2ccccc2)c2cc(SC)c(O/C=C(\F)C(=O)OCC)cc2S(=O)(=O)N1C (stereo not drawn) [Example 39]
14,100 to 1000,CCCCC1CN(C2CCOCC2)c2cc(SC)c(O/C=C/C(=O)O)cc2S(=O)(=O)N1C (stereo not drawn) [Example 23]
15,< 100,CCCCC1CN(c2ccc(N3CCCC3)cc2)c2cc(SC)c(O/C=C/C(=O)O)cc2S(=O)(=O)N1C (stereo not drawn) [Example 8]
16,< 100,CCCCC1CN(Cc2cccc(F)c2)c2cc(SC)c(O/C=C(\F)C(=O)OCC)cc2S(=O)(=O)N1C (stereo not drawn) [Example 37]
17,< 100,CCCCC1CN(C2CCC(F)(F)CC2)c2cc(SC)c(O/C=C/C(=O)O)cc2S(=O)(=O)N1C (stereo not drawn) [Example 3]
18,100 to 1000,CCCCC1CN(c2nccs2)c2cc(SC)c(O/C=C(\F)C(=O)O)cc2S(=O)(=O)N1C (stereo not drawn) [Example 49]
19,< 100,CCCCC1CN(C(C)c2ccccc2)c2cc(SC)c(O/C=C(\F)C(=O)O)cc2S(=O)(=O)N1C (stereo not drawn) [Example 52]
20,1000 to 5000,CCCCC1CN(c2cccnc2)c2cc(SC)c(O/C=C/C(=O)O)cc2S(=O)(=O)N1C (stereo not drawn) [Example 4]
21,< 100,CCCCC1CN(C2CCCOC2)c2cc(SC)c(O/C=C(\F)C(=O)O)cc2S(=O)(=O)N1C (stereo not drawn) [Example 25]
22,< 100,CCCCC1CN(Cc2ccc(SC)cc2)c2cc(SC)c(O/C=C(\F)C(=O)O)cc2S(=O)(=O)N1C (stereo not drawn) [Example 17]
23,1000 to 5000,CCCC[C@H]1CN([C@@H]2CCN(C)C2)c2cc(SC)c(O/C=C(\F)C(=O)O)cc2S(=O)(=O)N1C (relative stereo) [Example 54]
24,100 to 1000,CCCCC1CN(C2CCC(F)CC2)c2cc(SC)c(O/C=C(\F)C(=O)OCC)cc2S(=O)(=O)N1C (stereo not drawn) [Example 29]
25,1000 to 5000,CCCCC1CN(C2CC3CCC2C3)c2cc(SC)c(O/C=C(\F)C(=O)O)cc2S(=O)(=O)N1C (stereo not drawn) [Example 45]
26,100 to 1000,CCCCC1CN(Cc2ccc(F)cc2)c2cc(SC)c(O/C=C(\F)C(=O)OCC)cc2S(=O)(=O)N1C (stereo not drawn) [Example 12]
27,< 100,CCCCC1CN(c2ncccn2)c2cc(SC)c(O/C=C(\F)C(=O)OCC)cc2S(=O)(=O)N1C (stereo not drawn) [Example 20]
28,< 100,CCCCC1CN(C2CCCC2)c2cc(SC)c(O/C=C(\F)C(=O)O)cc2S(=O)(=O)N1C (stereo not drawn) [Example 32]
